The test system of assay [1] is TU-BcX-4IC tumoroids. As to the kind of experiment: Library screening of NCI approved anti-cancer drugs: tumoroid integrity/disintegration by nuclear count in projection images (viability/spheroid disintegration assay). The settings on record: for minimal effective concentration: Homo sapiens, TU-BcX-4IC, 120 h, read-out: Effective concentration, 3D tumoroids, 5 days treatment, tumoroid integrity by nuclear count, tested at 10 nM to 100 uM; for Viability HIT?: also hit in viability/spheroid disintegration assay, 10 μM.
Experimental: In addition, positive and negative controls were included in the test plates.
During incubation with compounds, tumoroids were monitored daily using TL imaging. Image analysis allowed characterization of tumoroid size, diameter, compactness, and integrity, as well as optical density (FIG. 2B, FIG. 7). Images of tumoroids were taken prior to compound treatment, and during day 3 and day 5 of compound treatment. For the end point assay, tumoroids were stained with viability and nuclear dyes on day 5 of compound treatment. Cells were stained with a combination of Hoechst, calcein AM, and Ethidium Homodimer III (EthD-III) and analyzed using high content imaging for complex phenotypic analysis; a subset of plates was set aside for additional assays including Cell Painting.
Images of organoids were taken with a 10× objective using Z-stack with a step size of 8 mm. Nuclei, live cells, and dead cells of stained cells were detected using DAPI, FITC, and TexasRed channels respectively. Maximum projection images were created from Z-stacks and analyzed as described in Methods. Multiple read-outs were generated characterizing spheroid area, diameter, intensities, and cell viability. In addition, cells inside each spheroid were counted using a nuclear stain. […] Suspended cells were plated into U-shape 384 well plates using a Biomek i7 automated liquid handler, incubated for 48 hours, and then treated with compounds, stained, and imaged. The protocols for compound additions, media, and staining included gentle media dispensing processes. Consecutively, tumoroids were cultured and monitored by automated imaging. Additionally, use of a collaborative robot enabled moving plates from the incubator to the imaging system, where transmitted light imaging or fluorescent imaging protocols were initiated.
For screening the compound library, maximum projection images may be employed. Spheroid disintegration is visible as an increase of spheroid size, in contrast to nicely shaped, round images of intact spheroids. Tumoroid disintegration can be described by several measurements: for example, increase in organoid area/diameter. Most accurate measurements may be done by counting cells or nuclei inside organoids using maximum projection images. […] Disintegrated tumoroids are made up of cells which are not held together in a tight aggregate but instead are loosely piled up in the well bottom resulting in 1) an increased projected area and 2) an increase in nuclear count in the projection images.
Simple nuclei count analysis in projection images was used as a reliable surrogate marker for organoid integrity/dis-integration.

In assay [2] the test system is TU-BcX-4IC 2D culture. The assay can be described thus: Imaging read-out, 2D culture. The conditions noted are these: Homo sapiens, 120 h, read-out: EC50, Imaging 2D.
Experimental: (§1) Cell metabolism may be measured by ATP level as another readout for effects of anti-cancer drugs that is related to cytotoxicity. In the present examples, a subset of 12 compounds were used for evaluation of compound effects, using the CellTiter-Glo 3D assay (Promega), which detects ATP levels. Compounds may be tested using 7 point 5× dilutions starting from 100 uM. In the present examples, compound effects on 2D culture and 3D cultures were compared, using imaging and CellTiter-Glo 3D methods. Cultures were set up in parallel, using same cell number (2000). Cultures were allowed to grow for 48 hours, then treated with compounds for 5 days.
(§2) Images were analyzed using MetaXpress Software (Molecular Devices). Count Nuclei or Cell Scoring application modules were used for nuclear count live/dead assessment, or evaluation of cell number positive for specific markers. Output measurements included spheroid width, spheroid area, average intensity for calcein AM or EthD-III, counts of all nuclei, and evaluation of average nuclear size and average intensities. In addition, calcein AM-positive cells were counted, and their area and intensity values were recorded. In addition to cell count, areas and intensities could be determined for live (EthD-III negative) and dead (EthD-III positive) cells.
For assay [3], the system named is TU-BcX-4IC tumoroids. As to the kind of experiment: Secondary follow-up 3D assay, 7-point concentration curves, tumoroid disintegration measurement. The assay is classed as cell-based, human. The settings on record: Homo sapiens, TU-BcX-4IC, 120 h. The protocol:
10 compounds, including panobinostat, carfilzomib, and bortezomib were tested across 7 concentrations in the 1-10000 nM range. Spheroids were treated for 5 days with these compounds, then stained as described above (FIG. 4). […] EC50 values (Table 2) were determined using tumoroid disintegration measurement (nuclear count in projection images).
Automated staining of spheroids was performed for one hour. After staining, dye solution was replaced with 1×PBS.

In assay [4] the test system is TU-BcX-4IC 3D cultures. The assay can be described thus: CellTiter-Glo 3D ATP assay, 3D culture. The conditions noted are these: for EC50: Homo sapiens, TU-BcX-4IC, 120 h, read-out: EC50, ATP 3D. (In ATP-based viability assays light output follows the ATP content of the culture.)
Experimental: (§3) Cell metabolism may be measured by ATP level as another readout for effects of anti-cancer drugs that is related to cytotoxicity. […] Compounds may be tested using 7 point 5× dilutions starting from 100 uM. In the present examples, compound effects on 2D culture and 3D cultures were compared, using imaging and CellTiter-Glo 3D methods. Cultures were set up in parallel, using same cell number (2000). Cultures were allowed to grow for 48 hours, then treated with compounds for 5 days.
Assay [5] concerns TU-BcX-4IC 3D cultures. As to the kind of experiment: Imaging read-out, 3D culture. The conditions noted are these: Homo sapiens, 120 h, read-out: EC50, Imaging 3D.
Experimental: as §1, §2
Assay [6] deals with TU-BcX-4IC 2D culture. The assay can be described thus: CellTiter-Glo 3D ATP assay, 2D culture. The settings on record: for EC50: Homo sapiens, TU-BcX-4IC, 120 h, read-out: EC50, ATP 2D.
Experimental: as §3
For assay [7], the system named is TU-BcX-4IC tumoroids. As to the kind of experiment: Cell Painting assay adapted for 3D tumoroids, phenotypic distance score and cluster analysis. The settings on record: 10 μM, phenotypic distance relative to DMSO controls.
Experimental: For phenotypic profiling, the tumoroids were treated with a single 10 μM concentration of compound, using the methods described above. Notable changes in the staining protocol included increased times for dye incubation, fixation, and permeabilization. […] Images were acquired with Z-stacks using 20× magnification, and the analysis was carried out on projection (maximum) images.
Unlike the previous analysis that included cell count or live-dead evaluation, multiple read-outs may be collected from the whole spheroid to form their phenotypic profile. […] Instead, the spheroid images may also acquired in transmitted light (bright field), and these images may be used to identify the spheroid structures using a deep learning-based image segmentation approach which may improve the analysis. Features extracted from each spheroid may include object morphologies, intensities, and texture measurements for, e.g., the six cell stains and bright field images.
To determine hits from the assay, a phenotypic distance score may be calculated based on the PCA (principal component analysis) components.
This score is a measure of the phenotypic effect of the compounds on the tumoroids relative to the controls. All hits may then be clustered based on their phenotypic profiles using the normalized principal component scores.
To image the organoids labeled with the cell painting dyes, the ImageXpress Confocal HT.ai system, equipped with a laser light source, was used for image acquisition. The confocal mode (pinhole size 60 μm) was used to image organoids with a 20× Plan Apo Lambda, NA 0.75 objective, with z-stacking enabled (5p m step size). The maximum projection image was selected in the acquisition setup.
Images were analyzed using MetaXpress Software (Molecular Devices). […] For the Cell Painting analysis, image analysis was done in the IN Carta image analysis software. To segment the organoids, a deep learning-based model was created based on the TL channel to segment individual organoids. Following segmentation, measurements that include intensity, shape, area, and texture were extracted from all 6 fluorescent channels. In total, 210 analytical features were obtained from each organoid.
The plate was first incubated with MitoTracker DeepRed (500 nM) for 2 hours. The samples were fixed with 4% paraformaldehyde (PFA) in HBSS for 60 minutes. All wash steps were carried out by exchanging half the volume in each well with HBSS to minimize displacement of the organoids from the center of the well.
Measurements from IN Carta were exported as a CSV file and uploaded into StratoMineR (Core Life Analytica), a web-based data analytics platform for hit picking and phenotypic clustering.
Assay [8] relates to TU-BcX-4IC tumoroids. As to the kind of experiment: Label-free transmitted light imaging of tumoroids, deep learning segmentation (IN Carta). The class given is cell-based, human. The conditions noted are these: 10 uM, 5 days, no staining, 10× objective. The protocol: Images were analyzed using SYNAP module of InCartasoftware (Molecular Devices). Analysis mask shown in yellow.
A deep learning-based segmentation (IN Carta Image Analysis Software) approach was used to find all tumoroid objects in transmitted light, either intact or affected. Following segmentation and data extraction, a machine learning tool was utilized to classify all tumoroids into intact, intermediate or severely affected categories. Affected tumoroids were flagged by increase in the object areas (criteria were set as AVERAGE 2*STDEV from the DMSO-treated), allowing detection of effective compounds (FIG. 7, Table 6). An advantage of this method is that compound effects could be interrogated in a label-free manner during multiple time points. However, the analysis allowed some ambiguity in determining accurate areas of the objects, especially when the phenotypic changes were weak or moderate (FIG. 7). The endpoint fluorescent imaging and analysis enabled more robust measurements and compound selection (Tables 5 and 6).
Transmitted light (TL) and fluorescent (FL) images were acquired on the ImageXpress Confocal HT.ai High-Content Imaging System (Molecular Devices) and images analyzed using MetaXpress High-Content Image Analysis Software. Tumoroid images were acquired in TL with approximately 60 μm offset. Zstack images were acquired with the 10× objectives using confocal mode. Best focus projection images were used for TL analysis, and maximum projection images were used for FL analysis. MetaXpress Software or IN Carta Image Analysis Software was used for analysis.

Setting [9] is: 3D assay, 7-point concentration curves, 5 days, nuclear count in projection images, read-out: EC50.

SMILES strings stand for the structures. Structures can show the parent of a compound that is named as a salt. Where two headings read alike, the source gives them in different places. Bounds are passed on as bounds.

As to `CC(C)C[C@H](NC(=O)[C@H](Cc1ccccc1)NC(=O)c1cnccn1)B(O)O` [Bortezomib], in the assay on TU-BcX-4IC tumoroids [1], the minimal effective concentration came to 0.01 µM. The “Efficacy at low concentrations” value in the assay on TU-BcX-4IC tumoroids [1] (library screen, tumoroid integrity by nuclear count) is “efficacy at low concentrations”. The concentration giving a half-maximal response (EC50) in the assay with TU-BcX-4IC 2D culture [2] turned out to be 0.01 µM; with TU-BcX-4IC tumoroids [3] (setting [9]), 0.017 µM; with TU-BcX-4IC 3D cultures [4], 0.015 µM; in the assay with TU-BcX-4IC 3D cultures [5], 0.07 µM; in the assay on TU-BcX-4IC 2D culture [6], 0.01 µM.

Turning to `CC(C)C[C@H](NC(=O)[C@H](CCc1ccccc1)NC(=O)CN1CCOCC1)C(=O)N[C@@H](Cc1ccccc1)C(=O)N[C@@H](CC(C)C)C(=O)[C@@]1(C)CO1` [Carfilzomib], the “Viability HIT?” value with TU-BcX-4IC tumoroids [1] is listed as “no”. Besides, the EC50 came to 1.05 µM in the assay with TU-BcX-4IC 2D culture [2], 5.82 µM in the assay with TU-BcX-4IC 3D cultures [4], 0.073 µM in the assay on TU-BcX-4IC 3D cultures [5] and 1.04 µM with TU-BcX-4IC 2D culture [6]. The “Distance Score” value in the assay on TU-BcX-4IC tumoroids [7] amounted to 5.007.

In the case of `COc1c(OCCCN2CCOCC2)ccc2c1N=C(NC(=O)c1cnc(N)nc1)N1CCN=C21` [Copanlisib tris-HCl], in the assay on TU-BcX-4IC tumoroids [1], the minimal effective concentration stood at 0.1 µM and the “Viability HIT?” value was “yes”. For the same molecule, the “Distance Score” value in the assay on TU-BcX-4IC tumoroids [7] was 5.147. The EC50 in the assay on TU-BcX-4IC tumoroids [3] (setting [9]) worked out at 0.028 µM. Moreover, the “Tumoroids effected by compound in transmitted light images” value (shortened to “Tumoroids effected by compound”) with TU-BcX-4IC tumoroids [8] is “effected by compounds”.

Take `O=C1c2c(O)ccc(O)c2C(=O)c2c(NCCNCCO)ccc(NCCNCCO)c21` [Mitoxantrone]: the “Viability HIT?” value in the assay with TU-BcX-4IC tumoroids [1] is “yes”. Further, in the assay on TU-BcX-4IC tumoroids [7], the “Distance Score” value was found to be 6.688. Also, the “Tumoroids effected by compound” value in the assay on TU-BcX-4IC tumoroids [8] was “effected by compounds”.

Take `Cc1[nH]c2ccccc2c1CCNCc1ccc(/C=C/C(=O)NO)cc1` [Panobinostat]: the EC50 in the assay on TU-BcX-4IC 2D culture [2] came to 0.006 µM; in the assay with TU-BcX-4IC tumoroids [3] (setting [9]), 0.054 µM; with TU-BcX-4IC 3D cultures [4], 0.084 µM; in the assay with TU-BcX-4IC 3D cultures [5], 0.141 µM; with TU-BcX-4IC 2D culture [6], 0.046 µM.

`C/C=C1\NC(=O)[C@H]2CSSCC/C=C/[C@H](CC(=O)N[C@H](C(C)C)C(=O)N2)OC(=O)[C@H](C(C)C)NC1=O` [Romidepsin]: the EC50 in the assay with TU-BcX-4IC 2D culture [2] was around 0.01 µM; in the assay with TU-BcX-4IC tumoroids [3] it was 0.036 µM; in the assay on TU-BcX-4IC 3D cultures [4], around 0.01 µM; in the assay on TU-BcX-4IC 3D cultures [5] it was below 0.01 µM; in the assay with TU-BcX-4IC 2D culture [6] it was around 0.01 µM.

Consider `CO[C@H]1C[C@@H]2CC[C@@H](C)[C@@](O)(O2)C(=O)C(=O)N2CCCC[C@H]2C(=O)O[C@H]([C@H](C)C[C@@H]2CC[C@@H](OC(=O)C(C)(CO)CO)[C@H](OC)C2)CC(=O)[C@H](C)/C=C(\C)[C@@H](O)[C@@H](OC)C(=O)[C@H](C)C[C@H](C)/C=C/C=C/C=C/1C` [Temsirolimus], for which, in the assay on TU-BcX-4IC tumoroids [1], the minimal effective concentration was 1 µM and the “Viability HIT?” value is reported as “no”. Moreover, the EC50 with TU-BcX-4IC 2D culture [2] came out at 10 µM. For the same molecule, the “Distance Score” value in the assay with TU-BcX-4IC tumoroids [7] worked out at 5.699. In addition, in the assay on TU-BcX-4IC 3D cultures [4] (3D culture, 2000 cells, 5 days treatment, CellTiter-Glo 3D), the “EC50, ATP 3D” value was “no fit”. Also, the EC50 with TU-BcX-4IC 3D cultures [5] came to 8.52 µM. Further, the “EC50, ATP 2D” value in the assay on TU-BcX-4IC 2D culture [6] (2D culture, 2000 cells, 5 days treatment, CellTiter-Glo 3D) was “no fit”.

For the molecule `CC(=O)Nc1cccc(-n2c(=O)n(C3CC3)c(=O)c3c(Nc4ccc(I)cc4F)n(C)c(=O)c(C)c32)c1` [Trametinib], the EC50 was found to be 6.27 µM in the assay with TU-BcX-4IC 2D culture [2]; 0.07 µM in the assay on TU-BcX-4IC tumoroids [3] (setting [9]); 2.62 µM in the assay on TU-BcX-4IC 3D cultures [4]; 8.82 µM in the assay on TU-BcX-4IC 3D cultures [5]; 7.33 µM in the assay on TU-BcX-4IC 2D culture [6].

Take `COc1cccc2c1C(=O)c1c(O)c3c(c(O)c1C2=O)C[C@@](O)(C(=O)CO)C[C@@H]3O[C@H]1C[C@H](N)[C@H](O)[C@H](C)O1` [doxorubicin]: the “Nuclear count in projection images (qualitative)” value in the assay with TU-BcX-4IC tumoroids [1] (3D tumoroids, 5 days) was “decrease in counted nuclei”. The “Tumoroids effected by compound” value with TU-BcX-4IC tumoroids [8] is on record as “effected by compounds”.

For the molecule `COc1cc(OC)cc(N(CCNC(C)C)c2ccc3ncc(-c4cnn(C)c4)nc3c2)c1` [erdafitinib], the “Tumoroids effected by compound” value with TU-BcX-4IC tumoroids [8] is “effected by compounds”.

As usually defined, the EC50 is the concentration giving half of the maximal effect.

The values above are taken from US20240331158A1, “CELL PAINTING AND ANALYSIS IN 3D CELLULAR MODELS” (priority 2023, published 2024).
